In PubChem BioAssay (NCI):
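The compound was tested at five concentrations on cells cultured in 96-well plates, with a 48-hour exposure period. GI50 is the concentration that inhibits growth by half. The concentration for full growth arrest is given as TGI.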

Assays:
Experiment in all cases: inhibition of tumour cell growth, NCI panel, 48 h
786-0 renal = system: 786-0 renal
A498 renal = system: A498 renal
A549 NSCLC = system: A549 NSCLC
ACHN renal = system: ACHN renal
BT-549 breast = system: BT-549 breast
CAKI-1 renal = system: CAKI-1 renal
COLO 205 colon = system: COLO 205 colon
DU-145 prostate = system: DU-145 prostate
EKVX NSCLC = system: EKVX NSCLC
HCC-2998 colon = system: HCC-2998 colon
HCT-116 colon = system: HCT-116 colon
HCT-15 colon = system: HCT-15 colon
HL-60(TB) leukemia = system: HL-60(TB) leukemia
HOP-62 NSCLC = system: HOP-62 NSCLC
HS 578T breast = system: HS 578T breast
HT29 colon = system: HT29 colon
IGROV1 ovarian = system: IGROV1 ovarian
KM12 colon = system: KM12 colon
LOX IMVI melanoma = system: LOX IMVI melanoma
M14 melanoma = system: M14 melanoma
MALME-3M melanoma = system: MALME-3M melanoma
MCF7 breast = system: MCF7 breast
MDA-MB-231 breast = system: MDA-MB-231 breast
MDA-MB-435 = system: MDA-MB-435
MDA-N = system: MDA-N
NCI-H226 lung = system: NCI-H226 lung
NCI-H23 lung = system: NCI-H23 lung
NCI-H460 lung = system: NCI-H460 lung
NCI-H522 lung = system: NCI-H522 lung
NCI/ADR-RES ovarian = system: NCI/ADR-RES ovarian
OVCAR-3 ovarian = system: OVCAR-3 ovarian
OVCAR-5 ovarian = system: OVCAR-5 ovarian
OVCAR-8 ovarian = system: OVCAR-8 ovarian
PC-3 prostate = system: PC-3 prostate
RXF 393 renal = system: RXF 393 renal
SF-295 CNS = system: SF-295 CNS
SF-539 CNS = system: SF-539 CNS
SK-MEL-2 melanoma = system: SK-MEL-2 melanoma
SK-MEL-28 melanoma = system: SK-MEL-28 melanoma
SK-MEL-5 melanoma = system: SK-MEL-5 melanoma
SK-OV-3 ovarian = system: SK-OV-3 ovarian
SN12C renal = system: SN12C renal
SNB-19 CNS = system: SNB-19 CNS
SNB-75 CNS = system: SNB-75 CNS
SW-620 colon = system: SW-620 colon
T-47D breast = system: T-47D breast
TK-10 renal = system: TK-10 renal
U251 CNS = system: U251 CNS
UACC-257 melanoma = system: UACC-257 melanoma
UACC-62 melanoma = system: UACC-62 melanoma
UO-31 renal = system: UO-31 renal
CCRF-CEM leukemia = system: CCRF-CEM leukemia
HOP-92 NSCLC = system: HOP-92 NSCLC
K-562 leukemia = system: K-562 leukemia
MOLT-4 leukemia = system: MOLT-4 leukemia
OVCAR-4 ovarian = system: OVCAR-4 ovarian
RPMI-8226 leukemia = system: RPMI-8226 leukemia
SF-268 CNS = system: SF-268 CNS
SR leukemia = system: SR leukemia

## COc1ccc2cc(CNCCCCCCNCc3ccc4cc(OC)ccc4c3)ccc2c1
786-0 renal
  TGI: 2.48 µM
A498 renal
  TGI: 2.99 µM
A549 NSCLC
  TGI: 3.44 µM
ACHN renal
  TGI: 2.92 µM
BT-549 breast
  TGI: 3.14 µM
CAKI-1 renal
  TGI: 2.71 µM
COLO 205 colon
  TGI: 0.291 µM
DU-145 prostate
  TGI: 2.99 µM
EKVX NSCLC
  TGI: 2.74 µM
HCC-2998 colon
  TGI: 0.277 µM
HCT-116 colon
  TGI: 0.324 µM
HCT-15 colon
  TGI: 1.39 µM
HL-60(TB) leukemia
  TGI: 0.396 µM
HOP-62 NSCLC
  TGI: 3.07 µM
HS 578T breast
  TGI: 3.62 µM
HT29 colon
  TGI: 0.383 µM
IGROV1 ovarian
  TGI: 3.15 µM
KM12 colon
  TGI: 0.511 µM
LOX IMVI melanoma
  TGI: 0.325 µM
M14 melanoma
  TGI: 0.315 µM
MALME-3M melanoma
  TGI: 2.62 µM
MCF7 breast
  TGI: 1.2 µM
MDA-MB-231 breast
  TGI: 1.38 µM
MDA-MB-435
  TGI: 0.497 µM
MDA-N
  TGI: 0.36 µM
NCI-H226 lung
  TGI: 3.49 µM
NCI-H23 lung
  TGI: 3.8 µM
NCI-H460 lung
  TGI: 0.94 µM
NCI-H522 lung
  TGI: 1.76 µM
NCI/ADR-RES ovarian
  TGI: 2.74 µM
OVCAR-3 ovarian
  TGI: 1.17 µM
OVCAR-5 ovarian
  TGI: 2.03 µM
OVCAR-8 ovarian
  TGI: 1.15 µM
PC-3 prostate
  TGI: 0.918 µM
RXF 393 renal
  TGI: 3.07 µM
SF-295 CNS
  TGI: 0.961 µM
SF-539 CNS
  TGI: 3.05 µM
SK-MEL-2 melanoma
  TGI: 2.64 µM
SK-MEL-28 melanoma
  TGI: 1.42 µM
SK-MEL-5 melanoma
  TGI: 2.67 µM
SK-OV-3 ovarian
  TGI: 3.24 µM
SN12C renal
  TGI: 2.67 µM
SNB-19 CNS
  TGI: 1.87 µM
SNB-75 CNS
  TGI: 2.66 µM
SW-620 colon
  TGI: 0.351 µM
T-47D breast
  TGI: 2.07 µM
TK-10 renal
  TGI: 3.28 µM
U251 CNS
  TGI: 0.601 µM
UACC-257 melanoma
  TGI: 3.34 µM
UACC-62 melanoma
  TGI: 2.8 µM
UO-31 renal
  TGI: 3.01 µM

## C=CC[n+]1c2ccccc2n2cc([N+](=O)[O-])ccc21
786-0 renal
  TGI: > 100 µM
A498 renal
  TGI: 55 µM
A549 NSCLC
  TGI: > 100 µM
ACHN renal
  TGI: > 100 µM
CAKI-1 renal
  TGI: > 100 µM
CCRF-CEM leukemia
  TGI: 55.3 µM
COLO 205 colon
  TGI: 26.2 µM
DU-145 prostate
  TGI: > 100 µM
EKVX NSCLC
  TGI: > 100 µM
HCC-2998 colon
  TGI: > 100 µM
HCT-116 colon
  TGI: 78.7 µM
HCT-15 colon
  TGI: > 100 µM
HL-60(TB) leukemia
  TGI: 50.3 µM
HOP-62 NSCLC
  TGI: > 100 µM
HOP-92 NSCLC
  TGI: 46.5 µM
HT29 colon
  TGI: 39.4 µM
IGROV1 ovarian
  TGI: 51.5 µM
K-562 leukemia
  TGI: 59.2 µM
KM12 colon
  TGI: > 100 µM
LOX IMVI melanoma
  TGI: > 100 µM
M14 melanoma
  TGI: > 100 µM
MALME-3M melanoma
  TGI: 30.2 µM
MCF7 breast
  TGI: 79.8 µM
MDA-MB-231 breast
  TGI: > 100 µM
MDA-MB-435
  TGI: 89.2 µM
MDA-N
  TGI: 50.7 µM
MOLT-4 leukemia
  TGI: 67.5 µM
NCI-H226 lung
  TGI: 69.3 µM
NCI-H23 lung
  TGI: 43 µM
NCI-H522 lung
  TGI: 41 µM
NCI/ADR-RES ovarian
  TGI: > 100 µM
OVCAR-3 ovarian
  TGI: 69.7 µM
OVCAR-4 ovarian
  TGI: > 100 µM
OVCAR-5 ovarian
  TGI: > 100 µM
OVCAR-8 ovarian
  TGI: 86.2 µM
PC-3 prostate
  TGI: > 100 µM
RXF 393 renal
  TGI: > 100 µM
SF-295 CNS
  TGI: > 100 µM
SF-539 CNS
  TGI: > 100 µM
SK-MEL-2 melanoma
  TGI: 95.8 µM
SK-MEL-28 melanoma
  TGI: 89.9 µM
SK-MEL-5 melanoma
  TGI: 42 µM
SK-OV-3 ovarian
  TGI: > 100 µM
SN12C renal
  TGI: 68.7 µM
SNB-19 CNS
  TGI: > 100 µM
SNB-75 CNS
  TGI: > 100 µM
SW-620 colon
  TGI: > 100 µM
T-47D breast
  TGI: > 100 µM
TK-10 renal
  TGI: > 100 µM
U251 CNS
  TGI: > 100 µM
UACC-257 melanoma
  TGI: 44.6 µM
UACC-62 melanoma
  TGI: 74.9 µM
UO-31 renal
  TGI: > 100 µM

## O=P1(S)OC[C@H]2O[C@@H]3[C@H](F)[C@@H]2OP(O)(=S)OC[C@H]2O[C@H]([C@H](F)[C@@H]2O1)n1cnc2c(ncnc21)NC/C=C/CNc1ncnc2c1ncn23 (some centres not stated)
786-0 renal
  GI50: > 100 µM
  TGI: > 100 µM
A498 renal
  GI50: 0.543 µM
  TGI: 11.5 µM
A549 NSCLC
  GI50: > 100 µM
  TGI: > 100 µM
ACHN renal
  GI50: > 100 µM
  TGI: > 100 µM
BT-549 breast
  TGI: > 100 µM
CAKI-1 renal
  GI50: > 100 µM
  TGI: > 100 µM
CCRF-CEM leukemia
  GI50: > 100 µM
  TGI: > 100 µM
COLO 205 colon
  GI50: > 100 µM
  TGI: > 100 µM
DU-145 prostate
  GI50: > 100 µM
  TGI: > 100 µM
EKVX NSCLC
  GI50: > 100 µM
  TGI: > 100 µM
HCC-2998 colon
  GI50: > 100 µM
  TGI: > 100 µM
HCT-116 colon
  GI50: > 100 µM
  TGI: > 100 µM
HCT-15 colon
  GI50: > 100 µM
  TGI: > 100 µM
HL-60(TB) leukemia
  GI50: 0.365 µM
HOP-62 NSCLC
  GI50: > 100 µM
  TGI: > 100 µM
HOP-92 NSCLC
  TGI: > 100 µM
HS 578T breast
  GI50: > 100 µM
  TGI: > 100 µM
HT29 colon
  GI50: 43.7 µM
  TGI: > 100 µM
IGROV1 ovarian
  GI50: > 100 µM
  TGI: > 100 µM
K-562 leukemia
  GI50: > 100 µM
  TGI: > 100 µM
KM12 colon
  GI50: > 100 µM
  TGI: > 100 µM
LOX IMVI melanoma
  GI50: > 100 µM
  TGI: > 100 µM
M14 melanoma
  GI50: > 100 µM
  TGI: > 100 µM
MALME-3M melanoma
  GI50: > 100 µM
  TGI: > 100 µM
MCF7 breast
  GI50: > 100 µM
  TGI: > 100 µM
MDA-MB-231 breast
  GI50: > 100 µM
  TGI: > 100 µM
MDA-MB-435
  GI50: > 100 µM
  TGI: > 100 µM
MOLT-4 leukemia
  GI50: > 100 µM
  TGI: > 100 µM
NCI-H226 lung
  GI50: 0.652 µM
  TGI: > 100 µM
NCI-H23 lung
  GI50: > 100 µM
  TGI: > 100 µM
NCI-H460 lung
  GI50: > 100 µM
  TGI: > 100 µM
NCI-H522 lung
  GI50: > 100 µM
  TGI: > 100 µM
NCI/ADR-RES ovarian
  GI50: > 100 µM
  TGI: > 100 µM
OVCAR-3 ovarian
  GI50: > 100 µM
  TGI: > 100 µM
OVCAR-4 ovarian
  GI50: 5.36 µM
  TGI: > 100 µM
OVCAR-5 ovarian
  GI50: > 44.1 µM
  TGI: > 100 µM
OVCAR-8 ovarian
  GI50: > 100 µM
  TGI: > 100 µM
PC-3 prostate
  GI50: > 100 µM
  TGI: > 100 µM
RPMI-8226 leukemia
  GI50: > 100 µM
  TGI: > 100 µM
RXF 393 renal
  GI50: 0.764 µM
  TGI: > 100 µM
SF-268 CNS
  GI50: > 100 µM
  TGI: > 100 µM
SF-295 CNS
  GI50: > 100 µM
  TGI: > 100 µM
SF-539 CNS
  GI50: 0.229 µM
  TGI: > 39.9 µM
SK-MEL-2 melanoma
  GI50: > 100 µM
  TGI: > 100 µM
SK-MEL-28 melanoma
  GI50: > 100 µM
  TGI: > 100 µM
SK-MEL-5 melanoma
  GI50: > 100 µM
  TGI: > 100 µM
SK-OV-3 ovarian
  GI50: 5.08 µM
  TGI: > 100 µM
SN12C renal
  GI50: > 100 µM
  TGI: > 100 µM
SNB-19 CNS
  GI50: > 100 µM
  TGI: > 100 µM
SNB-75 CNS
  GI50: > 79.9 µM
  TGI: > 100 µM
SR leukemia
  GI50: 0.239 µM
  TGI: > 100 µM
SW-620 colon
  GI50: > 100 µM
  TGI: > 100 µM
T-47D breast
  GI50: > 100 µM
  TGI: > 100 µM
TK-10 renal
  GI50: > 100 µM
  TGI: > 100 µM
U251 CNS
  GI50: > 100 µM
  TGI: > 100 µM
UACC-257 melanoma
  GI50: 0.316 µM
  TGI: > 100 µM
UACC-62 melanoma
  GI50: > 100 µM
  TGI: > 100 µM
UO-31 renal
  GI50: > 100 µM
  TGI: > 100 µM
